Key:
[1] = test system: OVCAR-3 ovarian cancer cells; experiment: Cell growth inhibition, Sulforhodamine B assay, OVCAR-3; assay type: cell-based; conditions: Homo sapiens, 120 h, 5 days culture, SRB assay, read-out: Cell Line GI50 Range OVCAR-3
[2] = molecular target: T1, Aurora B (Homo sapiens, UniProt Q96GD4); experiment: Aurora B inhibition assay (Z-Lyte); assay type: biochemical; conditions: 28 nM Aurora B, 128 μM ATP; read-out: IC50 Ranges Aurora B
T1 construct: purchased Invitrogen PV3970
Protocol: Aurora B inhibition was determined using the Z-Lyte assay kit from Invitrogen. The assay was performed using the recommended manufacturer's instructions with 128 μM ATP and 28 nM Aurora B (Invitrogen cat #PV3970). The % inhibition values were determined according to the manufacturer's directions and IC50 values were obtained using a non-linear 4 point logistic curve fit (XLfit4, IDBS)

[3] = test system: MDA-MB-468 breast cancer cells; experiment: Cell growth inhibition, Sulforhodamine B assay, MDA-MB-468; assay type: cell-based; conditions: Homo sapiens, 120 h, 5 days culture, SRB assay, read-out: Cell Line GI50 Range MDA-MB-468
Protocol: Breast cancer cells (MDA-MB-231, MDA-MB-468), colon cancer cells (HCT116, HT29) and ovarian cancer cells (PA-1, OVCAR-3) were seeded (1000 to 4000 in 80 μl per well depending on the cell growth rate) into 96 well plates 24 hours before compound overlay. Compounds were prepared as 10 mM stock solutions in 100% DMSO which were diluted with DMEM (Dulbecco's Modified Eagle's Medium) cell growth Medium (Invitrogen, Burlington, ON, Canada) containing 10% FBS (Fetal Bovine Serum) to concentrations ranging from 50 nM to 250 μM. Aliquots (20 μl) from each concentration were overlaid to 80 μl of the pre-seeded cells in the 96 well plates to make final concentrations of 10 nM to 50 μM. The cells were cultured for 5 days before the Sulforhodamine B assay (SRB) was performed to determine the compound's cell growth inhibition activity.
Sulforhodamine B (purchased from Sigma, Oakville, ON, Canada) is a water-soluble dye that binds to the basic amino acids of the cellular proteins. Thus, colorimetric measurement of the bound dye provides an estimate of the total protein mass that is related to the cell number. the cells are fixed in situ by gently aspirating off the culture media and adding 50 μl ice cold 10% Trichloroacetic Acid (TCA) per well and incubate at 4° C. for 30-60 min, The plates are washed with water five times and allowed to air dry for 5 min. Addition of 50 μl 0.4% (w/v) SRB solution in 1% (v/v) acetic acid to each well and incubatation for 30 min at RT completes the staining reaction. Following staining, plates are washed four times with 1% acetic acid to remove unbound dye and then allowed to air dry for 5 min. The stain is solubilized with 100 μl of 10 mM Tris pH 10.5 per well. Absorbance is read at 570 nm.
The percentage (%) of relative growth inhibition was calculated by comparing to DMSO treated only cells (100%). […] The GI50 was calculated using GraphPad PRISM software (GraphPad Software, Inc., San Diego, Calif., USA).

[4] = test system: PA-1 ovarian cancer cells; experiment: Cell growth inhibition, Sulforhodamine B assay, PA-1; assay type: cell-based; conditions: 120 h, 5 days culture, SRB assay, read-out: Cell Line GI50 Range PA-1
[5] = test system: HT29 colon cancer cells; experiment: Cell growth inhibition, Sulforhodamine B assay, HT29; assay type: cell-based; conditions: Homo sapiens, HT-29, 120 h, 5 days culture, SRB assay, read-out: Cell Line GI50 Range HT29
[6] = molecular target: T2, human PLK4 (Homo sapiens, UniProt O00444); experiment: PLK4 inhibition assay (indirect ELISA); assay type: biochemical; conditions: GST-PLK4 4 nM, 15 μM ATP; read-out: IC50 Ranges PLK4
T2 construct: amino terminal GST fusion of residues 1-391 of human PLK4; made in house; host or cells: E. coli
T2 sequence (O00444 1-391): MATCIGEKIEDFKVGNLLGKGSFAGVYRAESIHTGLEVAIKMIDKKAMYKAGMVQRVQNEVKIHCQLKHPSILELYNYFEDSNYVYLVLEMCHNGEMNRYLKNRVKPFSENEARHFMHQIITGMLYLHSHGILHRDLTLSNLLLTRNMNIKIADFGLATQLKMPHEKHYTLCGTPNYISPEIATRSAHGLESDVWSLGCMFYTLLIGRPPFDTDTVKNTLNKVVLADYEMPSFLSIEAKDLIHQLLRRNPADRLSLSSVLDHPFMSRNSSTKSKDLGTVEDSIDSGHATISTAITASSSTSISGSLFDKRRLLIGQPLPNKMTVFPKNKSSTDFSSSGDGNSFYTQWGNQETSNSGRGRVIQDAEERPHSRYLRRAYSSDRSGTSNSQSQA
Procedure, shortened: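 Compounds were tested either at a single 10 μM dose or across 10-point titrations (typically 0.5 to 0.001 μM), preincubated 15 min with 4 nM GST-PLK4 (human 1-391, dephosphorylated) before 15 μM ATP was added. MBP substrate phosphorylation over 30 min, pH 7.5 HEPES/MgCl2 buffer, read by HRP/TMB ELISA (450 nm). % inhibition vs. high-activity control; IC50 by logistic fit.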

[7] = molecular target: T3, human TTK (Homo sapiens, UniProt P33981); experiment: TTK inhibition assay (indirect ELISA); assay type: biochemical; conditions: GST-TTK 0.68 nM, 16 μM ATP; read-out: IC50 Ranges TTK
T3 construct: amino terminal GST fusion of full length human TTK; purchased Invitrogen
T3 sequence (P33981 1-857): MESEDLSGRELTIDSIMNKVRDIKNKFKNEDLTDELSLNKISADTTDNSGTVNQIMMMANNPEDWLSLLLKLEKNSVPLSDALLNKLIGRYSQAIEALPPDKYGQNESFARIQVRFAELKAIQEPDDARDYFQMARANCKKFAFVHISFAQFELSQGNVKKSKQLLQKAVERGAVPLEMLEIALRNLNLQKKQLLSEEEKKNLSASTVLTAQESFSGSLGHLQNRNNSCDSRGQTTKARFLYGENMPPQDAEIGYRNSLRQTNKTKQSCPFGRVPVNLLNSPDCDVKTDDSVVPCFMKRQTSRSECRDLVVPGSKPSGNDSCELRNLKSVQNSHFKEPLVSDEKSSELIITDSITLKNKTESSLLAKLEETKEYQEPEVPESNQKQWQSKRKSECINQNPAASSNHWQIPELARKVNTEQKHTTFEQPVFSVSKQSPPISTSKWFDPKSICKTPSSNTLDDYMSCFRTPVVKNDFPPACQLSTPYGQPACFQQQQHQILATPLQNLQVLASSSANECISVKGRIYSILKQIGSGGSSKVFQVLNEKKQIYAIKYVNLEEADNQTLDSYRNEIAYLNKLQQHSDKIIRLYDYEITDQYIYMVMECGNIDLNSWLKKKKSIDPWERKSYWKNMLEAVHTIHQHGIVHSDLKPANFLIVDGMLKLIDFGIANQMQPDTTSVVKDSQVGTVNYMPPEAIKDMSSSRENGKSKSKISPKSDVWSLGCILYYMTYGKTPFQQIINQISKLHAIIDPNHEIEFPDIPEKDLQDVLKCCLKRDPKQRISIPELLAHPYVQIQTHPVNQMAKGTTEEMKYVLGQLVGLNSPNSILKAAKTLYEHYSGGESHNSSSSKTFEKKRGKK

[8] = test system: HCT116 colon cancer cells; experiment: Cell growth inhibition, Sulforhodamine B assay, HCT116; assay type: cell-based; conditions: Homo sapiens, HCT-116, 120 h, 5 days culture, SRB assay, read-out: Cell Line GI50 Range HCT116
[9] = test system: MDA-MB-231 breast cancer cells; experiment: Cell growth inhibition, Sulforhodamine B assay, MDA-MB-231; assay type: cell-based; conditions: Homo sapiens, 120 h, 5 days culture, SRB assay, read-out: Cell Line GI50 Range MDA-MB-231

T1 sequence (Q96GD4 whole entry): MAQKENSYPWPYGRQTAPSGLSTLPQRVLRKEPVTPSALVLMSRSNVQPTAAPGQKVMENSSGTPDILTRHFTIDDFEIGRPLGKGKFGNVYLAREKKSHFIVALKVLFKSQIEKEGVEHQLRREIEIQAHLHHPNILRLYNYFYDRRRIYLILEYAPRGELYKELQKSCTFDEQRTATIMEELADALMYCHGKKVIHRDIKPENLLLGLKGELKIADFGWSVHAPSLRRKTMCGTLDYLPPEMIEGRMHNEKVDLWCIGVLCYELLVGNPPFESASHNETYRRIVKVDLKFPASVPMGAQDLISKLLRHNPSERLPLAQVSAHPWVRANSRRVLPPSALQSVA

SMILES	GI50 [1]	IC50 [2]	GI50 [3]	GI50 [4]	GI50 [5]	IC50 [6]	IC50 [7]	GI50 [8]	GI50 [9]
CN1CCC(Oc2ccc(-c3n[nH]c4ccc(C(=O)NC(c5ccsc5)C5CCC5)cc34)cc2)CC1 (centres unmarked) [Example A121]	≤ 5 µM	≤ 5 µM	≤ 5 µM	≤ 5 µM	≤ 5 µM	≤ 5 µM	≤ 5 µM	≤ 5 µM	–
CN1CCOc2ccc(-c3n[nH]c4ccc(NC(=O)C(c5ccsc5)N5CCCC5)cc34)cc2C1 (centres unmarked) [Example A90, N-(3-(4-methyl-2,3,4,5-tetrahydrobenzo[f][1,4]oxazepin-7-yl)-1H-indazol-5-yl)-2-(pyrrolidin-1-yl)-2-(thiophen-3-yl)acetamide]	–	≤ 5 µM	≤ 5 µM	≤ 5 µM	≤ 5 µM	≤ 5 µM	≤ 5 µM	≤ 5 µM	≤ 5 µM
CN1CCC(C(NC(=O)c2ccc3[nH]nc(-c4ccc(N5CCOCC5)cc4)c3c2)c2ccccc2)CC1 (centres unmarked) [Example A85, N-((1-methylpiperidin-4-yl)(phenyl)methyl)-3-(4-morpholinophenyl)-1H-indazole-5-carboxamide]	–	≤ 5 µM	≤ 5 µM	≤ 5 µM	≤ 5 µM	≤ 5 µM	≤ 5 µM	≤ 5 µM	≤ 5 µM
COC1CCN(c2ccc(-c3n[nH]c4ccc(NC(=O)C(c5ccsc5)N5CCCC5)cc34)cc2)CC1 (centres unmarked) [Example A116, N-(3-(4-(4-methoxypiperidin-1-yl)phenyl)-1H-indazol-5-yl)-2-(pyrrolidin-1-yl)-2-(thiophen-3-yl)acetamide]	–	≤ 5 µM	≤ 5 µM	≤ 5 µM	≤ 5 µM	≤ 5 µM	≤ 5 µM	≤ 5 µM	≤ 5 µM
COc1ccc(NC(=O)Nc2ccc3[nH]nc(-c4ccc(OC5CCN(C)CC5)cc4)c3c2)c(C)c1 [Example A81, 1-(4-methoxy-2-methylphenyl)-3-(3-(4-((1-methylpiperidin-4-yl)oxy)phenyl)-1H-indazol-5-yl)urea]	–	≤ 5 µM	≤ 5 µM	≤ 5 µM	≤ 5 µM	≤ 5 µM	≤ 5 µM	≤ 5 µM	5 to 20 µM
O=C(Nc1ccc2[nH]nc(-c3ccc(N4CCC(O)CC4)cc3)c2c1)C(c1ccccc1)C1CC1 (centres unmarked) [Example A103, 2-cyclopropyl-N-(3-(4-(4-hydroxypiperidin-1-yl)phenyl)-1H-indazol-5-yl)-2-phenylacetamide]	–	≤ 5 µM	≤ 5 µM	≤ 5 µM	≤ 5 µM	≤ 5 µM	≤ 5 µM	≤ 5 µM	≤ 5 µM
CC[C@@H](NC(=O)c1ccc2[nH]nc(-c3ccc(OC4CCN(C5COC5)CC4)cc3)c2c1)c1ccccc1Cl [Example A192, (R)—N-(1-(2-chlorophenyl)propyl)-3-(4-((1-(oxetan-3-yl)piperidin-4-yl)oxy)phenyl)-1H-indazole-5-carboxamide]	≤ 5 µM	≤ 5 µM	≤ 5 µM	≤ 5 µM	–	≤ 5 µM	≤ 5 µM	≤ 5 µM	–
COCCN1CCC(Oc2ccc(-c3n[nH]c4ccc(NC(=O)[C@H](OC)c5ccccc5)cc34)cc2)CC1 [Example A107, (R)-2-methoxy-N-(3-(4-((1-(2-methoxyethyl)piperidin-4-yl)oxy)phenyl)-1H-indazol-5-yl)-2-phenylacetamide]	–	≤ 5 µM	≤ 5 µM	≤ 5 µM	≤ 5 µM	≤ 5 µM	≤ 5 µM	≤ 5 µM	5 to 20 µM
CC(C)(O)C1CCN(c2ccc(-c3n[nH]c4ccc(NC(=O)C(c5ccsc5)N5CCCC5)cc34)cc2)CC1 (centres unmarked) [Example A111, N-(3-(4-(4-(2-hydroxypropan-2-yl)piperidin-1-yl)phenyl)-1H-indazol-5-yl)-2-(pyrrolidin-1-yl)-2-(thiophen-3-yl)acetamide]	–	≤ 5 µM	≤ 5 µM	≤ 5 µM	≤ 5 µM	≤ 5 µM	≤ 5 µM	≤ 5 µM	–
C[C@@H]1CCCN1[C@@H](C(=O)Nc1ccc2[nH]nc(-c3ccc(N4CCOCC4)cc3)c2c1)c1ccsc1 [Example A97, (R)-2-((R)-2-methylpyrrolidin-1-yl)-N-(3-(4-morpholinophenyl)-1H-indazol-5-yl)-2-(thiophen-3-yl)acetamide]	–	≤ 5 µM	≤ 5 µM	≤ 5 µM	≤ 5 µM	≤ 5 µM	≤ 5 µM	≤ 5 µM	–
O=C(NC(c1ccccc1)C1CCC1)c1ccc2[nH]nc(-c3ccc(N4CCC(O)CC4)cc3)c2c1 (centres unmarked) [Example A100, N-(cyclobutyl(phenyl)methyl)-3-(4-(4-hydroxypiperidin-1-yl)phenyl)-1H-indazole-5-carboxamide]	–	≤ 5 µM	≤ 5 µM	≤ 5 µM	≤ 5 µM	≤ 5 µM	≤ 5 µM	≤ 5 µM	≤ 5 µM
CCc1cccc(CC)c1NC(=O)Nc1ccc2[nH]nc(-c3ccc(N4CCOCC4)cc3)c2c1 [Example A86, 1-(2,6-diethylphenyl)-3-(3-(4-morpholinophenyl)-1H-indazol-5-yl)urea]	–	≤ 5 µM	≤ 5 µM	≤ 5 µM	≤ 5 µM	≤ 5 µM	≤ 5 µM	≤ 5 µM	≤ 5 µM
O=C(NC(c1ccccc1)C1CC1)c1ccc2[nH]nc(-c3ccc(N[C@H]4CC[C@H](O)CC4)cc3)c2c1 (single isomer, unassigned) [Example A106, rel-N-(cyclopropyl(phenyl)methyl)-3-(4-(((1r,4r)-4-hydroxycyclohexyl)amino)phenyl)-1H-indazole-5-carboxamide]	–	≤ 5 µM	≤ 5 µM	≤ 5 µM	≤ 5 µM	≤ 5 µM	≤ 5 µM	≤ 5 µM	–
O=C(NC(c1ccsc1)C1CC1)c1ccc2[nH]nc(-c3ccc(OC4CCN(CCO)CC4)cc3)c2c1 (centres unmarked) [Example A117, N-(cyclopropyl(thiophen-3-methyl-3-yl)methyl)-3-(4-((1-(2-hydroxyethyl)piperidin-4-yl)oxy)phenyl)-1H-indazole-5-carboxamide]	–	≤ 5 µM	≤ 5 µM	≤ 5 µM	≤ 5 µM	≤ 5 µM	≤ 5 µM	≤ 5 µM	–

Reference: patent publication US20140051679A1, “KINASE INHIBITORS AND METHOD OF TREATING CANCER WITH SAME” (UNIVERISTY HEALTH NETWORKS, priority 2011, published 2014)
